Consider two molecules from US20020082249A1, “Prodrugs of aspartyle protease inhibitors” (priority 1997, published 2002).

Data set [1] is described as follows: Pharmacokinetics in Sprague-Dawley rats following single oral dose. The following applies: for AUC: rats; for Cmax / half-life: both, Sprague-Dawley, rat, in vivo, po.
A short description of data set [2]: Similar oral pharmacokinetic study on dogs (solid capsule and solution formulations). The following applies: dog, in vivo, 17 mg/kg.

As a reminder, the Cmax is the peak of the concentration-time curve. One may read the half-life as the time in which the quantity being followed falls by half. Low values mean rapid decline, high ones slow decline. As usually defined, the Tmax is the time at which the peak concentration occurs.

Regarding `CC(C)CN(C[C@@H](OP(=O)(O)O)[C@H](Cc1ccccc1)NC(=O)O[C@H]1CCOC1)S(=O)(=O)c1ccc(N)cc1` [Compound 229], the “compound 229 detected in blood samples” value in data set [1] (after oral administration, first time point blood sample or later samples, suggests first pass metabolism to VX-478) is reported as “none of that compound was detected”. For the same molecule, the “delivery of VX-478, aqueous dose of 229 versus VX-478 formulations” value in data set [1] (aqueous dose of compound 229 compared with the two non-aqueous formulations used for VX-478) is “equivalence in delivery”. Besides, the “bioavailability, aqueous solution versus other vehicles” value in data set [1] (oral administration of compound 229 as an aqueous solution, in comparison to the other vehicles studied) is reported as “improved bioavailability”. The AUC in data set [1] (compound 229 PO, 40 mg/Kg molar equiv. of VX-478, vehicle H2O:PG:EtOH 5:4:1) came to 10.6 ug*hr/m1; in data set [1] (compound 229 PO, 40 mg/Kg molar equiv. of VX-478, vehicle H2O, VX-478 measured in plasma), 11.7 ug*hr/m1; in data set [1] (compound 229 PO, 40 mg/Kg molar equiv. of VX-478, vehicle PEG 400) it was 7.4 ug*hr/m1; in data set [1] (compound 229 PO, 40 mg/Kg molar equiv. of VX-478, vehicle TPGS/PEG 400/PG), 8.2 ug*hr/m1.
As for `CC(C)CN(C[C@@H](O)[C@H](Cc1ccccc1)NC(=O)O[C@H]1CCOC1)S(=O)(=O)c1ccc(N)cc1` [VX-478], the highest concentration (Cmax) was 14 µM in data set [1] (41 mg/kg), 6 µM in data set [1] (50 mg/kg) and 6800 ± 1100 ng/mL in data set [2]. Also, the half-life in data set [1] (41 mg/kg) is 2.5 h; in data set [1] (50 mg/kg), 2.2 h. Also, the AUC in data set [1] (VX-478 41 mg/Kg PO, vehicle 33% TPGS/PEG 400/PG) is 29.6 ug*hr/m1; in data set [1] (VX-478 50 mg/Kg PO, vehicle 12.5% TPGS/PEG 400/PG) it was 16.2 ug*hr/m1; in data set [2], 23500 ± 7400 ng·h/mL. Besides, in data set [2], the Tmax turned out to be 1 ± 0.8 h.
